Patent US8715704B2, “Lure” (London School of Hygiene & Tropical Medicine, priority 2008, dated 2014)
Structures can show the parent of a compound that is named as a salt.

How the values were obtained:
[1] = system: Lardoglyphus konoi; conditions: 10 ng/μl; Kuwahara et al., 1991; cited from earlier work
[2] = system: Dermatophagoides farinae; test: Acaricide lethal dosage bioassay; assay type: in vivo
[3] = system: Dermatophagoides farinae; test: Y-tube olfactometer behavioural bioassay; assay type: in vivo
Experimental: (§1) A Y-tube olfactometer was used to observe the behavioural responses elicited by house dust mites, as described previously (Skelton et al., in press). For each experiment, a treatment and control stimulus was added (1 μl) to separate filter paper discs (1.5 cm diameter), allowed to dry for 1 min, and placed into each arm of the olfactometer. A power analysis was carried out at 80% power, 95% significance; to calculate appropriate sample sizes to see 40% difference in effect (70% to treatment) (STATA 8.2 software). […] Treatments comprised: (1) chromatography fractions derived from the D. farinae extract .v. hexane, (2) neryl formate (10 & 100 ng/μl) .v. hexane, (3) a female D. farinae extract .v. neryl formate, (4) a male D. farinae extract .v. neryl formate, and (5) a female D. pteronyssinus extract .v. neryl formate. Categorical data from the Y-tube olfactometer bioassays were tested with a Chi-squared test for goodness of fit, with a Yates correction factor (preference to a particular arm) (Fowler et al., 1998). Time data were log 10-transformed prior to parametric data analysis. A three-way ANOVA (Minitab 11 for Windows) was carried out to analyse if the log time to make a decision in the treatment arm (neryl formate) was affected by the concentration of neryl formate, gender and house dust mite species studied.

[4] = system: Dermatophagoides pteronyssinus; test: Y-tube olfactometer behavioural bioassay; assay type: in vivo; conditions: for global responses (males and females) to the arm containing neryl formate: x^2=11.025, P<0.01, n=40
Experimental: as §1

[5] = system: Dermatophagoides farinae; test: Semi-field carpet disc lure bioassay with sticky trap; assay type: in vivo; conditions: 10 ng/10 μl neryl formate in hexane on filter paper v. hexane; cut pile and loop pile carpet; 1-40 min
Experimental: (§2) Initially, a bioassay was designed to test the efficacy of neryl formate in attracting populations of the American house dust mite, Dermatophagoides farinae, and the European house dust mite, D. pteronyssinus, from carpet sections. The bioassay involved the placement of D. farinae and D. pteronyssinus onto cut carpet discs (5 cm in diameter) which were placed underneath a glass Petri dish to maintain humidity. Two types of carpet (both obtained from Heuga Home Flooring BV) were tested: cut pile (Simply Soft Aquarius) and loop pile (Working Week Boucle Ink Pad). Aliquots of a 10 ng/10 μl neryl formate solution (in hexane) were used for the lure treatment, whilst hexane alone was used for the control. Both solutions were injected onto filter paper discs (2 cm diameter) and placed into the centre of the carpet discs. After an allocated time interval (1, 5, 10, 20 or 40 min), a sticky trap was placed onto the carpet to capture the mites, and subsequently placed under a microscope to record the amount and position of the mites, to ascertain if the mites had moved from their original position. Data were analysed using a generalized linear model assuming a binomial distribution with a logit link and dispersion parameter equal to 1.0 (see Table 1). The analysis of deviance for both responses was obtained using the MODEL procedure as implemented in GenStat 8.0 (Rothamsted Research).

[6] = system: Dermatophagoides pteronyssinus; test: as above; assay type: in vivo; conditions: 10 ng/10 μl neryl formate in hexane on filter paper v. hexane; cut pile and loop pile carpet; 1-40 min
Experimental: as §2

[7] = system: Caloglyphus polyphyllae mites; conditions: Shimizu et al., 2001; cited from earlier work
[8] = 10 ng v. hexane, x^2=6.05, P<0.05, n=20

SMILES: CCC[C@@H](C)C[C@@H](C)C[C@@H](C)C[C@@H](C)OC=O [(1R,3R,5R,7R) lardolure, (1R,3R,5R,7R)-1,3,5,7-tetramethyldecyl formate]
- concentration at which mites significantly respond [1]: 10 ppm

SMILES: C/C=C(\C)C(=O)O[C@H]1C[C@@H](OC(C)=O)[C@@]2(C(=O)OC)CO[C@H]3[C@@H](O)[C@@](C)([C@]45O[C@@]4(C)[C@H]4C[C@@H]5O[C@@H]5OC=C[C@@]54O)[C@H]4[C@]1(CO[C@]4(O)C(=O)OC)[C@@H]32 [azadirachtin]
- mortality [2]: little mortality

SMILES: CC(C)=CCC/C(C)=C\COC=O [neryl formate, (Z)-3,7-dimethyl-2,6-octadienyl formate]
- response of females to neryl formate [3, 8]: significant response
- global responses of males and females to the arm containing neryl formate ([3]; 10 ng v. hexane, x^2=9.025, P<0.01, n=40): significant
- global responses of males and females to the arm containing neryl formate ([3]; 100 ng v. hexane, x^2=4.225, P<0.05, n=40): significant
- response of males to neryl formate ([3]; 100 ng v. hexane, x^2=6.05, P<0.05, n=20): significant response
- response to neryl formate or con-specific extract ([3]; females, v. female D. farinae extract, x^2=1.38, P=0.24, n=18): no significant difference
- response to synthetic neryl formate or con-specific extract containing naturally produced neryl formate ([3]; males, v. male D. farinae extract, x^2=0.10, P=0.75, n=14): no significant difference
- response of females to neryl formate ([4]; 10 ng v. hexane, x^2=4.05, P<0.05, n=20): significant response
- response of males to neryl formate [4, 8]: significant response
- global responses (males and females) to the arm containing neryl formate ([4]; 10 ng v. hexane): significant
- response of females to neryl formate ([4]; 100 ng v. hexane, x^2=8.45, P<0.01, n=20): significant response
- global responses (males and females) to the arm containing neryl formate ([4]; 100 ng v. hexane): significant
- response to synthetic neryl formate or con-specific extract ([4]; females, v. female D. pteronyssinus extract, x^2=0.06, P=0.80, n=16): not significantly different
- number of mites retrieved on sticky traps [5]: significantly increased
- number of mites retrieved on sticky traps [6]: significantly increased

SMILES: CC(C)=CC/C=C(/C=O)CC=O [β-acaridial]
- amount at which mites significantly respond [7]: 10 ng
